Assay results as given in patent US20240132534A1, “OLIGONUCLEOTIDE PRIMER WITH AN ACYCLIC NUCLEOSIDE STRUCTURE FOR INITIAL CAPPING” (JIANGSU SYNTHGENE BIOTECHNOLOGY CO., LTD., priority 2022, published 2024).

Key:
T7 RNA polymerase [1] = target: T1, T7 RNA polymerase (Escherichia phage T7, UniProt P00573); assay: In vitro transcription yield of mRNA by co-transcriptional capping; assay type: biochemical; settings: for Yield: mRNA from 20 μl IVT, 1 μg template, 37° C. 2 h, Nanodrop One; for Increased yield relative to Comparative Example 1: mRNA IVT yield vs 50 μg of Comparative Example 1
T1 sequence (P00573 whole entry): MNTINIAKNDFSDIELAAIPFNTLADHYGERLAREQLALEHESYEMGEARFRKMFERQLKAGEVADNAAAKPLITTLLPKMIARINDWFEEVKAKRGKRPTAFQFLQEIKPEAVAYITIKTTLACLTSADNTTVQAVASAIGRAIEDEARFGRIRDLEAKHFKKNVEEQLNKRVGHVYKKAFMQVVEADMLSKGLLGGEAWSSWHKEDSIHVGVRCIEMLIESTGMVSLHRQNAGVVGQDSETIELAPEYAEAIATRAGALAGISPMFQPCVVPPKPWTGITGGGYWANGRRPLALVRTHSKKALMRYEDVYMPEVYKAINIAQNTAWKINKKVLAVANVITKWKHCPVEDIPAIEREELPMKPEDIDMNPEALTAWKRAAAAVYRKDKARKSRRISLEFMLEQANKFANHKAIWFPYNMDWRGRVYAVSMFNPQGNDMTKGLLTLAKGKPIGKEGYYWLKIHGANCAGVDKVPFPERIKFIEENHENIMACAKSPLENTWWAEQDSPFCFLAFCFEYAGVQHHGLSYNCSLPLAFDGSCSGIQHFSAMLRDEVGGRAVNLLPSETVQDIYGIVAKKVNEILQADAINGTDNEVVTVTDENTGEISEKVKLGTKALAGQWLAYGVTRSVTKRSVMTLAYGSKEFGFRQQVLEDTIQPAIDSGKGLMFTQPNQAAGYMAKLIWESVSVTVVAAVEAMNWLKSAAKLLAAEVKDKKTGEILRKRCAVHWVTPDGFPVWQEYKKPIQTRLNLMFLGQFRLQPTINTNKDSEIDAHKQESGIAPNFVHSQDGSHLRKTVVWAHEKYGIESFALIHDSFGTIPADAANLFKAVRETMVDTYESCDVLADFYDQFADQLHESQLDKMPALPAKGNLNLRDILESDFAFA
Procedure: (§1) Test Example 1: Determination of in vitro transcription yield and capping efficiency of mRNA
(§2) In vitro synthesis of mRNA was performed using the oligonucleotide primer with an acyclic nucleoside structure for initial capping by the co-transcriptional capping method. First, the plasmid was digested with NotI overnight at […]. DNA template was extracted to synthesize mRNA by in vitro transcription. The oligonucleotide primers with an acyclic nucleoside structure for initial capping in Examples 1-4, 6, 7, and 11 and the capping analogs in Comparative Examples 1-2 were used as cap structures respectively.
Note: During the experiment, the volume of materials required for the system was first calculated, and then the sample was added. The system was firstly added with sterile enzyme-free water, then added with 10X buffer, NTPs, and cap structure subsequently, mixed, centrifuged gently, then added with nuclease inhibitor, inorganic pyrophosphatase, T7 RNA polymerase, and linearized DNA template, mixed thoroughly, centrifuged gently, and incubated at 37° C. After 2 h, the system was added with 1U of DNase I and incubated at 37° C. for another 30 min to remove the DNA template. Then RNA was purified, usually by the magnetic bead purification method. The purified mRNA was dissolved in sterile enzyme-free water, and then quantitatively measured using Nanodrop One.

T7 RNA polymerase [2] = target: T1, T7 RNA polymerase; assay: IVT capping rate of mRNA by LC-MS; assay type: biochemical; settings: for Capping rate: LC-MS after RNase H cleavage; for Increased capping rate relative to Comparative Example 1: vs capping rate 93.5% of Comparative Example 1
Procedure: as §1, §2
Liquid chromatography mass spectrometry (LC-MS) was used to determine the IVT capping rate of mRNA with different initial cap analogs. First, it is necessary to design a labeled DNA probe that matches the starting base of the transcript product mRNA, and usually the label is biotin. The streptavidin-labeled magnetic beads were washed, and incubated with the synthesized DNA probe, mRNA and 10×RNase H reaction buffer at room temperature for 30 min. The mixture was mixed slowly while incubating, then added with 20 μl of RNase. H (5U/μl), incubated at 37° C. for 3 h, and mixed thoroughly every half hour. After the incubation was completed, the magnetic beads were washed and added with 100 μL of 75% methanol heated to 80° C. The mixture was heated to 80° C. on a hot plate and kept for 3 min, and then placed on a magnetic stand. The supernatant was collected and dried at room temperature for 45 min to 10 μl using an evaporative centrifuge. The sample was then resuspended in 50 μl of 100 μM EDTA/1% MeOH, which was ready for LC-MS analysis to determine RNA capping during the transcription reaction. Since there was a significant difference in molecular weight between capped and uncapped bases, the capping rate of mRNA transcription initiated by different cap analogs can be determined through the difference in molecular mass.

RIG-I = target: T2, RIG-I (Homo sapiens, UniProt O95786); assay: Binding ability of mRNA to RIG-I (RNA co-immunoprecipitation, RT-qPCR) in transfected 293T cells; assay type: cell-based; settings: eGFP mRNA made with the cap analog, 24 h after transfection
T2 construct: endogenous in cells; host or cells: 293T cells
T2 sequence (O95786 1-925): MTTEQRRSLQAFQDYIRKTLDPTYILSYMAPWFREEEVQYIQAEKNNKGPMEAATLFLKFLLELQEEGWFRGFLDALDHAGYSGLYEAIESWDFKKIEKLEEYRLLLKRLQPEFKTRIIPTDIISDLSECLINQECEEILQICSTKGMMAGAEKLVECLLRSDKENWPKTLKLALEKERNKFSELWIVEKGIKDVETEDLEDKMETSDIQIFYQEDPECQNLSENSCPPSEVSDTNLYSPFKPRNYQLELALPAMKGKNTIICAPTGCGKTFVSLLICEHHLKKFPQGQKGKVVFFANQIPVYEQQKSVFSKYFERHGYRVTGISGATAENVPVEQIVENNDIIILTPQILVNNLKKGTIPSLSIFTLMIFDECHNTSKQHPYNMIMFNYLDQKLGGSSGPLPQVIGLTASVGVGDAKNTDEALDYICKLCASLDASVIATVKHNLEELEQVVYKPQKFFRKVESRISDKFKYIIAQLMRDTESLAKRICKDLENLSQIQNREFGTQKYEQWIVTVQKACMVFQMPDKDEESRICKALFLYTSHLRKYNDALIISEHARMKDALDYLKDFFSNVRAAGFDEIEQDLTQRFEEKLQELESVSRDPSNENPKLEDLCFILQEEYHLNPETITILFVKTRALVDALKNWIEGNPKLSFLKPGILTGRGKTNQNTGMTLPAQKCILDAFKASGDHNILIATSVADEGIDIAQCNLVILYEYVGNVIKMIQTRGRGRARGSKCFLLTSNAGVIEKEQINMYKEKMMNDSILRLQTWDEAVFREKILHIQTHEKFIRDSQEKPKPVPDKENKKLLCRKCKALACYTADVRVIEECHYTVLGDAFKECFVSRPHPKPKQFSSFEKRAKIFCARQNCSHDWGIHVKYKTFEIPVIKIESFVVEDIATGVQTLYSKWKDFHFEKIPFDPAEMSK
Source text: Test Example 2: Determination of the binding ability of mRNA to RIG I
RIG-I mainly includes two repeated caspase activation and recruitment domains (CARD) at the N-terminus, a helicase structure in the middle and a RNA domain at the C-terminus. The overexpression of the N-terminal CARD domain of RIG-I can promote cells to secrete type I interferon (IFN) even in the absence of viral infection. Therefore, this domain is mainly responsible for transmitting signals downstream. RIG-I can recognize exogenous RNA, mediate the production of cytokines and chemokines, and recruit innate immune cells to trigger immune responses. mRNA with high immunogenicity is easily recognized and combined by RIG. Thus, mRNA with strong binding ability to RIG-1 has high immunogenicity.
In this study, 293T cells were transfected with the eGFP mRNAs prepared by in vitro transcription initiated by the oligonucleotide primers with an acyclic nucleoside structure for initial capping in Examples 1-4, 6, 7, and 11 and the cap analogs in Comparative Examples 1-2, and collected 24 hours later. The intracellular protein RIG I and RNA bound thereto were co-immunoprecipitated by the RNA co-immunoprecipitation method. Finally, reverse transcription and real-time quantitative PCR were performed on these mRNAs.
The specific cell culture conditions were the same as above. Cells were collected 24 hours after transfection. First, a fixing solution was added for incubation. After 10 min, glycine solution of an appropriate concentration was added to terminate the reaction, and cells were collected. The collected cells were lysed using the lysis solution, centrifuged at 12,000 rpm and 4° C. for 10 min. The supernatant was collected and incubated with an appropriate amount of RIG-I or IgG antibody on a shaker at 4° C. overnight. Then 20 μl of Protein A/G magnetic beads were added, incubated at 4° C. for 4 h, and washed on a magnetic stand. After washing was completed, RNA was extracted and used for subsequent RT-qPCR to determine the expression results.

T7 transcription = T7 transcription (Escherichia phage T7, UniProt P00573); settings: cited from earlier work
T7 transcription, sequence (P00573 whole entry): as the sequence (P00573 whole entry) above

For `COC1C(OP(=O)(O)OC[C@H]2O[C@@H](n3cnc4c(=O)[nH]c(N)nc43)C(O)C2O)[C@@H](COP(=O)(O)OP(=O)(O)OP(=O)([O-])OC[C@H]2O[C@@H](n3c[n+](C)c4c(=O)[nH]c(N)nc43)C(O)C2O)O[C@H]1n1cnc2c(N)ncnc21` (stereo in doubt) [Comparative Example 1, ^m7GpppA2′OMepG, reference compound], the Yield (T7 RNA polymerase [1]) was 50 µg, the Capping rate (T7 RNA polymerase [2]) was 93.5% and the “Relative binding ability to RIG-I” value (RIG-I) was 3.1±0.51. For the same compound, the “Capped RNA prepared per milliliter of transcription reaction system” value (T7 transcription; per milliliter of transcription reaction) was 4 mg and the “Immunogenicity of transcription products” value (T7 transcription; vs ARCA) was “lower than that of ARCA”.
With `COC[C@@H](COP(=O)(O)OP(=O)([O-])OP(=O)(O)OC[C@H]1O[C@@H](n2cnc3c(N)ncnc32)C(OC)C1OP(=O)(O)OC[C@H]1O[C@@H](n2cnc3c(=O)[nH]c(N)nc32)C(O)C1O)O[C@H](CO)n1c[n+](C)c2c(=O)[nH]c(N)nc21` (stereo in doubt) [Example 11] the “Increased yield relative to Comparative Example 1” value (T7 RNA polymerase [1]) was 42%, the Yield (T7 RNA polymerase [1]) was 71 µg and the Capping rate (T7 RNA polymerase [2]) was 96.8%. For the same compound, the “Increased capping rate relative to Comparative Example 1” value (T7 RNA polymerase [2]) was 3.3% and the “Relative binding ability to RIG-I” value (RIG-I) was 1.5±0.25.
In the case of `COC1C(OP(=O)(O)OC[C@H](CO)O[C@H](CO)n2cnc3c(=O)[nH]c(N)nc32)[C@@H](COP(=O)(O)OP(=O)(O)OP(=O)([O-])OC[C@H]2O[C@@H](n3c[n+](C)c4c(=O)[nH]c(N)nc43)C(O)C2O)O[C@H]1n1cnc2c(N)ncnc21` (some centres unmarked) [Comparative Example 2, reference compound], the Yield (T7 RNA polymerase [1]) is reported as 41 µg, the Capping rate (T7 RNA polymerase [2]) is reported as 90.1% and the “Relative binding ability to RIG-I” value (RIG-I) is reported as 4.0 ± 0.31.
In the case of `CO[C@H]1C(OP(=O)(O)OC[C@H]2O[C@@H](n3cnc4c(=O)[nH]c(N)nc43)[C@@H](O)C2O)[C@@H](COP(=O)(O)OP(=O)([O-])OP(=O)(O)OC[C@H](CO)O[C@H](CO)n2c[n+](C)c3c(=O)[nH]c(N)nc32)O[C@H]1n1cnc2c(N)ncnc21` (some centres unmarked) [Example 1], the “Increased yield relative to Comparative Example 1” value (T7 RNA polymerase [1]) is reported as 44%, the Yield (T7 RNA polymerase [1]) is reported as 72 µg and the Capping rate (T7 RNA polymerase [2]) is reported as 99.3%. The “Increased capping rate relative to Comparative Example 1” value (T7 RNA polymerase [2]) was 5.8%.
For `CO[C@H]1C(OP(=O)(O)OC[C@H](CO)O[C@H](CO)n2cnc3c(=O)[nH]c(N)nc32)[C@@H](COP(=O)(O)OP(=O)([O-])OP(=O)(O)OC[C@H](CO)O[C@H](CO)n2c[n+](C)c3c(=O)[nH]c(N)nc32)O[C@H]1n1cnc2c(N)ncnc21` (some centres unmarked) [Example 2], the Yield (T7 RNA polymerase [1]) was 58 µg, the Capping rate (T7 RNA polymerase [2]) was 96.5% and the “Increased capping rate relative to Comparative Example 1” value (T7 RNA polymerase [2]) was 3%. The “Relative binding ability to RIG-I” value (RIG-I) was 2.4 ± 0.34.
For `COC[C@@H](O[C@@H](COP(=O)(O)OC[C@H](CO)O[C@H](CO)n1cnc2c(=O)[nH]c(N)nc21)COP(=O)(O)OP(=O)([O-])OP(=O)(O)OC[C@H](CO)O[C@H](CO)n1c[n+](C)c2c(=O)[nH]c(N)nc21)n1cnc2c(N)ncnc21` [Example 4], the Yield (T7 RNA polymerase [1]) was 45 µg, the Capping rate (T7 RNA polymerase [2]) was 93.3% and the “Relative binding ability to RIG-I” value (RIG-I) was 2.8 ± 0.62.
In the case of `COCCOC1C(OP(=O)(O)OC[C@H]2O[C@@H](n3cnc4c(=O)[nH]c(N)nc43)C(O)C2O)[C@@H](COP(=O)(O)OP(=O)(O)OP(=O)([O-])OC[C@H](CO)O[C@H](CO)n2c[n+](C)c3c(=O)[nH]c(N)nc32)O[C@H]1n1cnc2c(N)ncnc21` (some centres unmarked) [Example 6], the Yield (T7 RNA polymerase [1]) is reported as 44 µg, the Capping rate (T7 RNA polymerase [2]) is reported as 95.2% and the “Relative binding ability to RIG-I” value (RIG-I) is reported as 1.4±0.32.
With `C[n+]1cn([C@@H](CO)O[C@@H](CO)COP(=O)([O-])OP(=O)(O)OP(=O)(O)OC[C@]23COC(C2OP(=O)(O)OC[C@H]2O[C@@H](n4cnc5c(=O)[nH]c(N)nc54)C(O)C2O)[C@H](n2cnc4c(N)ncnc42)O3)c2nc(N)[nH]c(=O)c21` (some centres unmarked) [Example 7] the “Increased yield relative to Comparative Example 1” value (T7 RNA polymerase [1]) was 36%, the Yield (T7 RNA polymerase [1]) was 68 µg and the Capping rate (T7 RNA polymerase [2]) was 97.6%. The “Increased capping rate relative to Comparative Example 1” value (T7 RNA polymerase [2]) was 4.1% and the “Relative binding ability to RIG-I” value (RIG-I) was 2.1 ± 0.21.
